System: sensitive, MDR and XDR clinical Mtb strains
Assay type: cell-based, Mycobacterium tuberculosis
Conditions: panel of MDR and XDR drug resistant clinical Mtb strains

Cc1ccn2c(C(=O)NCc3ccc(Oc4ccc(F)cc4)cc3)c(C)nc2c1 [Compound 18]
potency surpassing that of PA-824: ~10 fold

— PMC3733398 (ACS medicinal chemistry letters, 2013)
